Assay [1] has as its target Serine/threonine-protein kinase 10 (Homo sapiens) (UniProt O94804). The assay can be described thus: Selectivity interaction (Kinase panel (DSF assay)) EUB0001489b STK10.
Assay [2] concerns the target T1, Serine/threonine-protein kinase TAO1 (Homo sapiens) (UniProt Q7L7X3).
T1 sequence (whole entry): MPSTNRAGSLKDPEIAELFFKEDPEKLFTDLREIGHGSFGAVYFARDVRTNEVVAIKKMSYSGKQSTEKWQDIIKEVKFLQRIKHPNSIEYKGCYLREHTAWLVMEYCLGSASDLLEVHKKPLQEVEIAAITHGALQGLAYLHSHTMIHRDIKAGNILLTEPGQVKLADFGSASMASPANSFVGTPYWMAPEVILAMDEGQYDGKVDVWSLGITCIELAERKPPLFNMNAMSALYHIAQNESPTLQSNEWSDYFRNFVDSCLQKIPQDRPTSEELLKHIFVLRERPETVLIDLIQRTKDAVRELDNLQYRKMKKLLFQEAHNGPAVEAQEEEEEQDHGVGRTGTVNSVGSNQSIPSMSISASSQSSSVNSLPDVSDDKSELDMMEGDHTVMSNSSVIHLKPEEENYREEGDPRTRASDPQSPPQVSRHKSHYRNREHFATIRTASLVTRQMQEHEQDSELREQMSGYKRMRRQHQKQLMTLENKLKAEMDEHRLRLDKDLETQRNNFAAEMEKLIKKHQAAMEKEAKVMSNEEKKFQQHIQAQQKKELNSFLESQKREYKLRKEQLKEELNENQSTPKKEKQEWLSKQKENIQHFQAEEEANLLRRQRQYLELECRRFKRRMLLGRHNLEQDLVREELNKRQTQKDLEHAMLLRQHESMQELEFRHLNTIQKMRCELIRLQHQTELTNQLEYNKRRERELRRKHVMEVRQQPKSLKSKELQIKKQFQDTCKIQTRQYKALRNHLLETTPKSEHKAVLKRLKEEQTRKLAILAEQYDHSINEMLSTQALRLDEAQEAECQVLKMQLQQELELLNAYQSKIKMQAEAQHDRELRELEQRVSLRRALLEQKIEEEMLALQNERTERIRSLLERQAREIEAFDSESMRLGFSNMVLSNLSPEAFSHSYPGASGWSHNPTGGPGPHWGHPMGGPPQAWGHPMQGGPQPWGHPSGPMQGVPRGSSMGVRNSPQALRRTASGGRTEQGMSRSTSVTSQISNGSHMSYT
Description: Selectivity interaction (KinomeScan (DiscoverX)) EUB0001619a TAOK1. The settings on record: at 1 µM.

The target of assay [3] is T2, Megakaryocyte-associated tyrosine-protein kinase (Homo sapiens) (UniProt P42679).
T2 sequence (whole entry): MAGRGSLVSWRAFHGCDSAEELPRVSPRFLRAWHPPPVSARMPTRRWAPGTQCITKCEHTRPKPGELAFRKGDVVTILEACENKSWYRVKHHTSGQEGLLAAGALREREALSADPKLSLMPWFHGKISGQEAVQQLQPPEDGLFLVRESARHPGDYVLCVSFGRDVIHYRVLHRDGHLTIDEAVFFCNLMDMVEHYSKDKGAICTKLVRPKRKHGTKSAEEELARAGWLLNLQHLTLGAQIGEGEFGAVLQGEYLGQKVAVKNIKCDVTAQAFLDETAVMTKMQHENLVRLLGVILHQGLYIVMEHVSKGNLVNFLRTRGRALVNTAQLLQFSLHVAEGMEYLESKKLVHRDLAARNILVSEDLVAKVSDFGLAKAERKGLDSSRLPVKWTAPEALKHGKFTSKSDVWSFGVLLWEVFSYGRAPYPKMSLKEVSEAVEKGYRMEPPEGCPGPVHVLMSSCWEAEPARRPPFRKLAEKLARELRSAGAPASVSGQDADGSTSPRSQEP
Description: Selectivity interaction (KinomeScan (DiscoverX)) EUB0000045b MATK.

Assay [4] deals with T3, Protein kinase C iota type (Homo sapiens) (UniProt P41743).
T3 sequence (whole entry): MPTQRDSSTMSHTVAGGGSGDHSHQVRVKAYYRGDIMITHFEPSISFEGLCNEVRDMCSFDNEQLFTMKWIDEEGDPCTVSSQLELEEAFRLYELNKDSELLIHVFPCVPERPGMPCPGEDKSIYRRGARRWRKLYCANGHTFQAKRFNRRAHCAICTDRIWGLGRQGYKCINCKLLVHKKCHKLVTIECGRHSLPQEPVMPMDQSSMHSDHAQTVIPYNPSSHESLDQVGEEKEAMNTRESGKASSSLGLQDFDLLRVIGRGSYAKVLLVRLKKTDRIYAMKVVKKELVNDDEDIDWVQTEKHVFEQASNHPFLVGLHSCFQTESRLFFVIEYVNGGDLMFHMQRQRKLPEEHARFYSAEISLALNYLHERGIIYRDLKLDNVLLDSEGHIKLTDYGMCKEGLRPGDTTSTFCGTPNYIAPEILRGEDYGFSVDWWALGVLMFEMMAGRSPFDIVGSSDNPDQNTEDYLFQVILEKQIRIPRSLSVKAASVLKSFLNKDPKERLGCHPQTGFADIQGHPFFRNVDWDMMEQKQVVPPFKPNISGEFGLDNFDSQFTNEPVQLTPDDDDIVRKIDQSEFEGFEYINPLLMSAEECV
The assay can be described thus: Selectivity interaction (ProQinase) EUB0000171b PRKCI.

Assay [5] addresses Receptor-type tyrosine-protein kinase FLT3 (Homo sapiens) (UniProt P36888). Description: Selectivity interaction (KinomeScan (DiscoverX)) EUB0001049a FLT3. The conditions noted are these: at 1 µM.
In assay [6] the target is ATPase family AAA domain-containing protein 2 (Homo sapiens) (UniProt Q6PL18). The assay can be described thus: Selectivity interaction (Bromodomain panel (DSF asssay)) EUB0000270b ATAD2.
Assay [7] has as its target T4, Serine/threonine-protein kinase Nek3 (Homo sapiens) (UniProt P51956).
T4 sequence (whole entry): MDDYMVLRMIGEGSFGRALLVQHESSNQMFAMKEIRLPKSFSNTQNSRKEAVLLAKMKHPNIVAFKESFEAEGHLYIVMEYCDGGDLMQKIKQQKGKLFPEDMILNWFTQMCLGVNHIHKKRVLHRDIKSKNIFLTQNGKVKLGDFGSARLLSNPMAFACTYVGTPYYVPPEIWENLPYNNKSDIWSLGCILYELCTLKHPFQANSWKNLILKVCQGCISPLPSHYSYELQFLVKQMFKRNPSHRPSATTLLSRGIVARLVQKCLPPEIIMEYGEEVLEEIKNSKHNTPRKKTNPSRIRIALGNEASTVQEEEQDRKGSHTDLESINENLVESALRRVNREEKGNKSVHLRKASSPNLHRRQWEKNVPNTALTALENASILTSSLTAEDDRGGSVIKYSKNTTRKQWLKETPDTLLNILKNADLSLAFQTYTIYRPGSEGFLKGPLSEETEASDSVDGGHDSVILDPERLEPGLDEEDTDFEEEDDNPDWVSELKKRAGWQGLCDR
Description: Selectivity interaction (KinomeScan (DiscoverX)) EUB0000618a NEK3. The conditions noted are these: at 10 µM.

The target of assay [8] is 5'-AMP-activated protein kinase catalytic subunit alpha-2 (Homo sapiens) (UniProt P54646). The assay can be described thus: Selectivity interaction (KinomeScan (DiscoverX)) EUB0001079a PRKAA2. The settings on record: at 1 µM.
Sequence of 5'-AMP-activated protein kinase catalytic subunit alpha-2 (Homo sapiens) (P54646 whole entry, looked up): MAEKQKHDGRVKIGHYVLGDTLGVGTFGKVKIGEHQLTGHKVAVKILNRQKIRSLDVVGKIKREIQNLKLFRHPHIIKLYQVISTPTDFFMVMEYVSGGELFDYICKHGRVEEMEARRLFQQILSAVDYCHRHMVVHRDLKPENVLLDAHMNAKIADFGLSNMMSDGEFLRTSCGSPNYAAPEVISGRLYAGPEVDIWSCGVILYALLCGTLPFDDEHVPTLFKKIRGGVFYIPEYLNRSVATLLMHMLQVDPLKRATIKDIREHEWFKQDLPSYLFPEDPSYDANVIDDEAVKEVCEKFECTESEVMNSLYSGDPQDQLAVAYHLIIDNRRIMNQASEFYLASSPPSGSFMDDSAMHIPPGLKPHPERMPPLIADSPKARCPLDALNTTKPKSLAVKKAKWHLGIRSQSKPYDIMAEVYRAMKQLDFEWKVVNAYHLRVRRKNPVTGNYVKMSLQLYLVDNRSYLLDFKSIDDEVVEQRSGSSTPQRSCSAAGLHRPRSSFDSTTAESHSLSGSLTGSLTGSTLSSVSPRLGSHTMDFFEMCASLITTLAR

Sequence of ATPase family AAA domain-containing protein 2 (Homo sapiens) (Q6PL18 whole entry, the tested form may be a part): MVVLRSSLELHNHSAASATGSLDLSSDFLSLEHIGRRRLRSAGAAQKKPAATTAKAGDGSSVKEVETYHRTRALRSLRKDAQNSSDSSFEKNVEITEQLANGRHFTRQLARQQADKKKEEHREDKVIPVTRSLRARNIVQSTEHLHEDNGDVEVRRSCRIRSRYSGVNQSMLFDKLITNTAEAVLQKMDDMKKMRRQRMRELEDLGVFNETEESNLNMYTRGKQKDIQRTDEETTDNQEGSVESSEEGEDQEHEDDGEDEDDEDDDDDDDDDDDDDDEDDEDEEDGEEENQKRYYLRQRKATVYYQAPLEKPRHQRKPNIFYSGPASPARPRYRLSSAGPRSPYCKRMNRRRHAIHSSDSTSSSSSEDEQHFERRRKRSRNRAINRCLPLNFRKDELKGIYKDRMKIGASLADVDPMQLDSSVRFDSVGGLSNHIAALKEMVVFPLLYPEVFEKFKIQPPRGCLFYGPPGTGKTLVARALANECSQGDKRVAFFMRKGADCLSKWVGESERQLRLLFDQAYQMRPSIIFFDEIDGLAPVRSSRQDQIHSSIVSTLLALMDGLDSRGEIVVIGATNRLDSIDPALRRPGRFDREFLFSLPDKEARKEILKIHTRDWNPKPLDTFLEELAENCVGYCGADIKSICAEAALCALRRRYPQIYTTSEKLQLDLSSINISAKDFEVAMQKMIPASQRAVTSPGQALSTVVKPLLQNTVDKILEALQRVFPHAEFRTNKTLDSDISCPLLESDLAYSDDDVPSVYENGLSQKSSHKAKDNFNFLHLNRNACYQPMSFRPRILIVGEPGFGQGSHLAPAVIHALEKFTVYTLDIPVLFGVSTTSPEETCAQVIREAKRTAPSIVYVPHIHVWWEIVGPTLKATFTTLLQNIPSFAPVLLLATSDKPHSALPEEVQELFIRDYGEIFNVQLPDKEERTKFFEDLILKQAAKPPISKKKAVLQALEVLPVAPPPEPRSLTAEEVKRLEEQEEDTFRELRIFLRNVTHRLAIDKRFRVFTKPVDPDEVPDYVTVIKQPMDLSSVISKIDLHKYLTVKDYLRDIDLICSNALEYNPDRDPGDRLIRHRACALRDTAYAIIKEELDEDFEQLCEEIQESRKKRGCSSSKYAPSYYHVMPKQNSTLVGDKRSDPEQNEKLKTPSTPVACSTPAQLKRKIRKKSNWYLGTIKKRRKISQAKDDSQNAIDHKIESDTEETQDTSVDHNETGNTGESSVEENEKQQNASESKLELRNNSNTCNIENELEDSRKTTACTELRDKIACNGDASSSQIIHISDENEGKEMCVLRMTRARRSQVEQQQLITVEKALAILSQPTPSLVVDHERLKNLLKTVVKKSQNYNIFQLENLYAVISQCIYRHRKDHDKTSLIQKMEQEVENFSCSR
Sequence of Receptor-type tyrosine-protein kinase FLT3 (Homo sapiens) (P36888 whole entry, the tested form may be a part): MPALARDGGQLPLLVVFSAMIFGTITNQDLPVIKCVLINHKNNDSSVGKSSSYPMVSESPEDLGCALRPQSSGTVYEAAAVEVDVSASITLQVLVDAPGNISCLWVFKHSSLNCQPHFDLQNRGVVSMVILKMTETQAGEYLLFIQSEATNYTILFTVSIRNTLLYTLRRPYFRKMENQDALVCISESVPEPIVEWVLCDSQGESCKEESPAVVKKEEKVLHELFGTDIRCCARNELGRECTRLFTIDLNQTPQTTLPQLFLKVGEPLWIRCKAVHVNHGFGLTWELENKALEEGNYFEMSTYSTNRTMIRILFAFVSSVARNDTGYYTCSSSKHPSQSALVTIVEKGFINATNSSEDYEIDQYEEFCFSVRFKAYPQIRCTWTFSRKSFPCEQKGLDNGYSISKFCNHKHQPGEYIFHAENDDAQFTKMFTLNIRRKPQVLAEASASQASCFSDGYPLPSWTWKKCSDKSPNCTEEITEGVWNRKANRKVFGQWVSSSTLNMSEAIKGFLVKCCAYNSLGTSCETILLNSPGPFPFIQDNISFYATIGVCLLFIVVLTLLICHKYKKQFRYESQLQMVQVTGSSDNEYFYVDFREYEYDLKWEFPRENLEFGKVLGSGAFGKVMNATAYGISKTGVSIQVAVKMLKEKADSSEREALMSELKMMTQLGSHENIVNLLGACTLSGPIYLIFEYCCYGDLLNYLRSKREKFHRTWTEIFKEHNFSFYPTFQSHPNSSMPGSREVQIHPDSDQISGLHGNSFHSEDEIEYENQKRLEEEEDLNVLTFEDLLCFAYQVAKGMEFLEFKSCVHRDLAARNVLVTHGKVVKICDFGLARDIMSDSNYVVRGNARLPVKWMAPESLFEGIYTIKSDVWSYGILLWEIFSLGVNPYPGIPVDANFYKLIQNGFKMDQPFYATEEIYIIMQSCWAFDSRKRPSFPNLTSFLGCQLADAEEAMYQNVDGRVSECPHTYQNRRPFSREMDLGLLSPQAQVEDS
Sequence of Serine/threonine-protein kinase 10 (Homo sapiens) (O94804 whole entry, looked up): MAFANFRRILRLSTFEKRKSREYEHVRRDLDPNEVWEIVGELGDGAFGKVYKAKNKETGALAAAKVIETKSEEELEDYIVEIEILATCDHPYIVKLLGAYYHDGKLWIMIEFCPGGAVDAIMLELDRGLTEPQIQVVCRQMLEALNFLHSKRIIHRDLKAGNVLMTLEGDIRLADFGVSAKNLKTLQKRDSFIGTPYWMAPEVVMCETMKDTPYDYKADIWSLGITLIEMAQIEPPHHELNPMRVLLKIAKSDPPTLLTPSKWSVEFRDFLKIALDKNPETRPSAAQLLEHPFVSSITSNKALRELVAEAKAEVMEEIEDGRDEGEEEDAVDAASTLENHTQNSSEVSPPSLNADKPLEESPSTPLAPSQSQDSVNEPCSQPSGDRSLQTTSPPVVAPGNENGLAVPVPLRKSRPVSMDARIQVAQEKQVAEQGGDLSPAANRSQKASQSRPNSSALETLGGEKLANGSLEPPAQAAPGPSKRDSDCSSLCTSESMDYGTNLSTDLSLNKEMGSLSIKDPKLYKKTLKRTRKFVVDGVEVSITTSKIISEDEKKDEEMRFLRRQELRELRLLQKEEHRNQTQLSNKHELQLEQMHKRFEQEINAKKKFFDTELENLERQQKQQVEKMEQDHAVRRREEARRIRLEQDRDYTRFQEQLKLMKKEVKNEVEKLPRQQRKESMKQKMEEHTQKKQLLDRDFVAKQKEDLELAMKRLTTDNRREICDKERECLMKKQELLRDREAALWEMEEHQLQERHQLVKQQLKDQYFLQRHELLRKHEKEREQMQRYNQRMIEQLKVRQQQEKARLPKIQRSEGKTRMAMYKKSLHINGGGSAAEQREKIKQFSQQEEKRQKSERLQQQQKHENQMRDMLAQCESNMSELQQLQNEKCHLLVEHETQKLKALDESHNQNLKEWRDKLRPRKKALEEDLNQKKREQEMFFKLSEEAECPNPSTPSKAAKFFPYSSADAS

`CN1CCN(C(=O)c2ccc3cc2OCCOCCNc2ccn4ncc-3c4n2)CC1` registered a dTM in assay [1] of 2.3 K. In turn, `N#Cc1cccc(-c2c[nH]c3ncnc(N4CCOCC4)c23)c1` had a % of control in assay [2] of 6.4%. Turning to `C=CC(=O)Nc1cc(-n2c(=O)ccc3cnc4ccc(-c5ccc(NS(C)(=O)=O)cc5)cc4c32)ccc1C`, the % of control in assay [3] (at 1 µM) worked out at 92%; in assay [3] (at 10 µM), 95%. Take `C=CC(=O)Nc1cccc(C(=O)Nc2ccc(Nc3cc(-c4[nH]c(SC)nc4C)ccn3)cc2)c1`: the % of control worked out at 80% in assay [4] (at 1 µM) and 52% in assay [4] (at 5 µM).

Regarding `COc1cc(Nc2nc(C)cc(-c3cnn4nc(OC)ccc34)n2)cc(C(F)(F)F)c1`, the % of control in assay [5] stood at 64%. Turning to `Cc1cc(CN)cc(C)c1-c1ncn(C)c1-c1cncn1C`, in assay [6], the dTM was -1.82 K. As for `O[C@H]1CC[C@H](Nc2ncc3nc(Nc4c(F)cc(F)cc4F)n([C@H]4CCOC4)c3n2)CC1`, the % of control in assay [7] came out at 100%. For `Nc1cnc(N2CCc3cc(S(=O)(=O)Nc4c(F)cc(Cl)cc4F)cc(N4CCCC4=O)c32)nc1` [TP-020n], the % of control in assay [8] worked out at 100%.

For the origin of these results see ChEMBL document CHEMBL5465560, “Selectivity Literature for EUbOPEN Chemogenomic Library” (2024).
